# Test results: patent publication US20220177839A1, “COMPOSITION, CULTURE MEDIUM AND METHOD FOR INDUCING AND/OR AMPLIFYING TSCM IN VITRO” (SHANGHAI SINOBAY BIOTECHNOLOGY CO., LTD., priority 2019, published 2022)
# Tested on: human primary CD8^+T cells (CD3^+CD8^+)
# Test: In-vitro induction and amplification of CD8+TSCM in culture media A to E (cell count, flow cytometry CD45RA, CCR7, CD95)
# Type: cell-based
# Details: GSK-3β inhibitor
# Procedure: 1) Pre-prepared human primary T cells (Shanghai Sinobay Bio-Tech Co., Ltd., hereinafter referred to as “Sinobay”) were selected by a magnetic bead negative selection method to obtain human primary CD8^+T cells (CD3^+CD8^+), and the human primary CD8^+T cells (CD3^+CD8^+) were placed in a 96-well U-bottom culture plate, with 5×10^4 CD8^+T cells in each well;
# 2) subsequently, culture media A to E and magnetic beads coupled to an anti-CD3 antibody and an anti-CD28 antibody were added into the culture plates containing the CD8^+T cells, wherein a ratio of the number of the magnetic beads to the number of the cells was 1:1; and fresh culture media A to E were supplemented at Day 4, Day 7, Day 10 and Day 13 of cell culture; and
# 3) the cells were counted at Day 0, Day 7 and Day 14 of cell culture respectively, flow cytometry antibodies (CD45RA, CCR7 and CD95) for detecting TSCM were incubated, and the TSCM was detected by using a flow cytometry.
structure (smiles),measurement,value
Nc1cccc(-c2cc3c(Oc4cccc(O)c4)ncnc3[nH]2)c1 [TWS119],concentration range that effectively induces the formation of TSCM,1 to 50 µM
